Test results: article PMC8360061, “Search for the Active Ingredients from a 2‐Aminothiazole DMSO Stock Solution with Antimalarial Activity” (Chemmedchem, 2021)
“Also recorded” adds a separate entry of the source.

What was measured:
[1] = Decomposition study of stock solutions (HRMS, NMR); assay type: physicochemical
Protocol: Firstly, we performed a temperature‐dependent decomposition study of compound 1 at 10 mM concentration in DMSO at room temperature (RT), +4 °C and −20 °C (SI, Section 2.3). After seven days, 64 % of the sample stored at RT had decomposed (SI, Table S1). Besides visual inspection of the colour changes of the test sample (see Table 2), the decomposition was monitored by HRMS and NMR spectroscopy. […] Furthermore, all three samples were tested for their inhibitory activity against PfIspE after the incubation period. […] This fact correlated with the degree of chemical transformation of compound 1 (Table S1). In the IspE assay, the activity of the target enzyme is coupled to the oxidation of NADH (which can be followed spectrophotometrically at 340 nm) via a cascade of the auxiliary enzymes pyruvate kinase and lactate dehydrogenase (PK/LDH).[10] Therefore, we next confirmed, whether the effects observed in the IspE assay are due to inhibition of the target enzyme or of the auxiliary enzymes. Three samples of compound 1 were tested in PK/LDH assay (Table 2).
Secondly, we analysed if spontaneous chemical transformation of compound 1 may depend on the solvent used for the preparation of its stock solutions. We incubated 10 mM stock preparations of compound 1 in DMSO, acetonitrile (ACN) and methanol (MeOH) at RT. Aliquots were taken during 16 days of incubation and tested against the enzyme PfIspE (Table 3). […] For further decomposition incubation of compound 1, only DMSO was used as solvent.
2.3 Temperature-Dependent Study
Compound 1 was dissolved in DMSO to afford 10 mM stock solution, in the scale of 3.65 mg in 1 mL. Three aliquots were prepared and one each was stored inside a light -protecting box at different temperatures: room temperature (RT), +4 °C and –20 °C. Samples were only taken to RT for the minimum time required for sampling. Samples were further d iluted with acetonitrile to 10 µM (1:1000) for HRMS analysis. For calibration, a fresh stock solution of the compound 1 was prepared shortly before the analysis. The concentration range used for the calibration was from 10 µM to 20 nM, including 10 samples with 1:1 dilutions starting from the highest concentration (Appendix I). In all of the calibration points and samples, diphenhydramine ( m/z: 256.16907 [M+H]+) was included as an internal standard at the concentration of 500 nM. The results were analysed using Thermo Xcalibur Quan Browser. Similarly, three NMR samples of compound 1 were prepared in DMSO-d6 and each stored at different temperatures; RT, +4 °C and –20 °C, (Figure S8).
Table S1. Summary of the decomposition of compound 1 at different temperatures with the corresponding enzymatic activities measured after three months.
The Percentage of Compound 1 Left After Degradation after 3 months of decomposition[b] Temperature Day 7 1 month 2 months PfIspE IC50 EcIspE IC50 PK/LDH IC50 […]
[a] [b] Errors given as formal standard error. n.d.: not determined, PK/LDH: pyruvate kinase and lactate dehydrogenase, Pf: Plasmodium falciparum, Ec: Escherichia coli.
Figure S7. The HRMS recorded for the samples submitted to the enzyme assay after 3 months of decomposition with the corresponding colour differences. […]
2.4 Solvent-Dependent Study
As in the Section 2.3, stock solutions of compound 1 were prepared in DMSO, ACN and MeOH and stored at RT for 16 days in a box protected from light . Samples were collected during this time and the enzymatic activity was analysed for them as in main text, Table […]
compound 1 for ACN or MeOH was detectible (Figures S11–12). Similarly, the old samples of compound 1 used for enzyme and cell assays were analysed with HRMS (Figure S13). Additionally, NMR sample in MeOH was prepared and measured over time while stored at RT. As a follow-up experiment, the stability of compound 1 was determined for its 10 mM stock solution in Tris-HCl (pH 7.6) with and without 5% DMSO and Cyrene™ with HRMS (Figure S16–18). […]

A549 = test: Cytotoxicity assay A549; assay type: cell-based; conditions: Homo sapiens, old sample before becoming aware of the decomposition, read-out: %-inh. A549
Protocol: (§1) Due to the nature of the study, some decomposition samples w ere only tested once and thus, for some formal standard error, […]
(§2) For the final purified compounds, replicates were measured and standard deviation was calculated at least from two replicates. […]
(§3) 1.3 General Procedure for Cytotoxicity Assay
(§4) Cytotoxicity assays based on the human lung adenocarcinoma (A549), human embryonic kidney (Hek293) and human hepatocellular carcinoma (HepG2) cell lines were performed as described previously.[7] […]

HepG2 = test: Cytotoxicity assay HepG2; assay type: cell-based; conditions: Homo sapiens, old sample before becoming aware of the decomposition, read-out: %-inh. HepG2
Protocol: as §1, §2, §3, §4

With `CCn1c(C)cc(-c2csc(Nc3ccccc3C(F)(F)F)n2)c1C` [Compound 1] the “Degradation after 2 months” value ([1]; 10 mM in DMSO, +4 °C) was 79%, the “Percentage of Compound 1 Left After Degradation” value (shortened to “Percentage”) ([1]; 10 mM in DMSO, +4 °C, 1 month) was 48% and the “Percentage” value ([1]; 10 mM in DMSO, +4 °C, 2 months) was 21%. For the same molecule, the “Percentage” value ([1]; 10 mM in DMSO, +4 °C, Day 7) was 96%, the “Degradation after 2 months” value ([1]; 10 mM in DMSO, RT) was 100% and the “decomposition after two weeks (in words)” value ([1]; 10 mM in DMSO, RT) was “fully decomposed”. For the same molecule, the “share of sample decomposed after seven days” value ([1]; 10 mM in DMSO, RT) was 64%, the “Percentage” value ([1]; 10 mM in DMSO, RT, 1 month) was 1% and the “Percentage” value ([1]; 10 mM in DMSO, RT, 2 months) was 0%. For the same molecule, the “Percentage” value ([1]; 10 mM in DMSO, RT, Day 7) was 36%, the “Degradation after 2 months” value ([1]; 10 mM in DMSO, −20 °C) was 18% and the “Percentage” value ([1]; 10 mM in DMSO, −20 °C, 1 month) was 91%. The “Percentage” value ([1]; 10 mM in DMSO, −20 °C, 2 months) was 82%, the “Percentage” value ([1]; 10 mM in DMSO, −20 °C, Day 7) was 96% and the “decomposition at −20 °C (in words)” value ([1]; 10 mM in DMSO, −20 °C, up to two months) was “decomposition hardly occurs; also recorded: only minimal decomposition”. For the same molecule, the “decomposition in Cyrene (HRMS, in words)” value ([1]; 10 mM stock in Cyrene, RT, after one day) was “clear decomposition”, the “decomposition in ACN (HRMS, in words)” value ([1]; stock solution in ACN at RT for 16 days) was “no decomposition” and the “decomposition in MeOH (HRMS, in words)” value ([1]; stock solution in MeOH at RT for 16 days) was “no decomposition”. The inhibition at 100 µM (A549) was -0.3% and the inhibition at 100 µM (HepG2) was 44%.
